This is an account of results in patent US20230414543A1, “METHOD OF FEEDING A GESTATING OR LACTATING ANIMAL” (NUTRECO IP ASSETS B.V., priority 2021, published 2023).

Read-outs that look alike come from different tables or passages of the source.

The test system of assay [1] is gestating or lactating sows and their litters. An excerpt: (§1) From day 80 of gestation up to parturition (day 115 of gestation), and subsequently through the whole period of lactation from parturition until weaning (25 days after parturition), sows of various parities were fed a top dress of 100 g/day on top of their normal diet. […] The placebo top dress was formulated from barley, wheat, corn, wheat bran, molasses, vegetable oil, and sugar. […] The ingredient (40%) was embedded in a matrix of hydrogenated fat (50%) and calcium carbonate (10%).
(§2) During gestation, sows were fed the normal diet at approximately 3 kg/day. In lactation, all sows were fed the normal diet at an increasing level following a set feeding scheme, starting from 3 kg after parturition, and increasing by 0.5 kg each day to the maximum intake capacity of each sow. The allowance was capped at a maximum of 9 kg/day.
At parturition, piglets were weighed immediately as they were born, and again at 24 h after birth, to estimate colostrum intake based on the algorithm developed by Theil et al. (Mechanistic model to predict colostrum intake based on deuterium oxide dilution technique data and impact of gestation and prefarrowing diets on piglet intake and sow yield of colostrum. J. Anim. Sci. 2014, 92:5507-5519). One day after parturition, when 24-h weights had been recorded, litter size was standardized by cross-fostering, to 14 or 15 piglets per litter. […] As a measure of milk production, the weight gain of the litter was measured at 7 days after parturition, and again at 24 days of lactation, just before piglets were weaned. […] When analyzing the data, litter weight gain was corrected for litter size.

A further assay has as its system colostrum of sows.
Excerpt: as §1
Colostrum samples were collected just after the first piglet was born and were analyzed for total solids, protein, and lactose, using Brix refractometry. Brix refractometry is a method to measure the concentration of solutes in a solution, based on the refraction of light, and is widely used to analyze milk samples in the dairy industry (for example: Lokke M M, Engelbrecht R, Wiking L. Covariance structures of fat and protein influence the estimation of IgG in bovine colostrum. Journal of Dairy Research (2016), 83: 58-66). […] Total solids is the sum of protein, fat, and lactose.
The total output of nutrients (protein, lactose, or total solids) per sow was calculated by multiplying the volume of colostrum per sow (Table 2) with the concentration (Table 3) of each nutrient.

Assay [2] has as its system gestating or lactating sows and their litters.
Excerpt: From day 109 of gestation up to parturition (day 115 of gestation), and subsequently through the whole period of lactation from parturition until weaning (25 days after parturition), sows of various parities were fed a top dress of 100 g/day on top of their normal diet. […] The placebo top dress was formulated from barley, wheat, corn, wheat bran, molasses, vegetable oil, and sugar.
as §2
At parturition, piglets were weighed immediately as they were born. One day after parturition, litter size was standardized by cross-fostering, to 14 or 15 piglets per litter. Piglets were only cross-fostered to sows within the same treatment. As a measure of milk production, the weight gain of the litter was measured at 7 days after parturition, and again at 21 days of lactation, just before piglets were weaned (24 days of lactation). […] When analyzing the data, litter weight gain was corrected for litter size.
This is another data set of the same source.

Where [3] appears, read: corrected for litter size, 4 g/day, day 80 of gestation until weaning.
Where [4] appears, read: piglets, 4 g/day, day 80 of gestation until weaning.
Where [5] appears, read: Brix refractometry, sample just after first piglet was born.
The mark [6] stands for this setting: volume of colostrum × concentration.

As to calcium gluconate, in assay [1] (setting [3]), the “Litter weight gain d1-d7, kg per litter” value is listed as 16.9 kg per litter and the “Litter weight gain d1-d24, kg per litter” value was determined as 70.0 kg per litter. Besides, in assay [1] (corrected for litter size, estimated from piglet weights at birth and 24 h (Theil et al.), 4 g/day calcium gluconate in fat matrix, top dress from day 80 of gestation until weaning), the “Total colostrum intake per litter” value is 5565 g. Besides, the “Increase of litter weight gain compared to placebo” value in assay [1] (first seven days of lactation) was found to be 7.6%. In addition, the “Litter size at weaning, difference compared to placebo” value in assay [1] (piglets per litter) is 0.3. The Numbers weaned in assay [1] (piglets per litter, 4 g/day, day 80 of gestation until weaning) was determined as 13.2. In assay [1] (setting [4]), the “Neonatal mortality up to day 7” value worked out at 8.4% and the Pre-wean mortality is on record as 9.6%. Besides, in assay [1] (result in words), the “Neonatal survival compared to placebo” value was “greater” and the “Survival throughout the whole lactation period compared to placebo” value is given as “greater”. In addition, the “Increase of litter weight gain compared to placebo” value in assay [1] (whole lactation period) amounted to 5%. In the assay on colostrum of sows (setting [5]), the “Concentration of solutes in colostrum: Lactose” value worked out at 2.4% and the “Concentration of solutes in colostrum: Protein” value stood at 17.5%. In the assay on colostrum of sows (colostrum), the “Higher output of total solids, total protein and lactose compared to placebo” value was 6-10%. The “Concentration of solutes in colostrum: Total solids” value in the assay with colostrum of sows (total of fat, protein and lactose, Brix refractometry, sample just after first piglet was born) turned out to be 25.0%. In addition, in the assay with colostrum of sows (setting [6]), the “Total output of nutrients per sow: Total lactose per sow” value is recorded as 136 g, the “Total output of nutrients per sow: Total protein per sow” value is reported as 1008 g and the “Total output of nutrients per sow: Total solids per sow” value is recorded as 1437 g. Besides, in assay [2] (4 g/day, day 109 of gestation until weaning), the “Litter weight gain day 1-day 21” value was found to be 67.1 kg. In addition, the “Litter size at weaning, difference compared to placebo” value in assay [2] (piglets per litter) worked out at 0.4. Further, in assay [2] (result in words), the “Survival of piglets throughout the whole lactation period compared to placebo” value is “greater”. Further, the “Litter gain, difference compared to placebo” value in assay [2] (when correcting for the number of piglets weaned) came out at 2.2 kg.
